Reference: ChEMBL document CHEMBL1137635, “Multiple antibiotics exert delayed effects against the Plasmodium falciparum apicoplast” (Antimicrob Agents Chemother, 2007)
Active and inactive are the calls of the source. The calls are words filed in the database; no cut-off is given here.

Columns and labels:
[1] = tested on: Plasmodium falciparum; experiment: Antimalarial activity as trophozoite arrest after 24 hrs against chloroquine-sensitive Plasmodium falciparum 3D7 infected human erythrocytes at 6 uM 96 hrs post infection; assay type: functional, organism-based
[2] = tested on: Plasmodium falciparum; experiment: Antimalarial activity as 2nd generation parasitaemia after 48 hrs against chloroquine-sensitive Plasmodium falciparum 3D7 infected human erythrocytes at 6 uM 0-48 hrs post invasion; assay type: functional
[3] = tested on: Plasmodium falciparum; experiment: Antimalarial activity as 2nd generation parasitaemia after 48 hrs against chloroquine-sensitive Plasmodium falciparum 3D7 infected human erythrocytes at 6 uM 36-48 hrs post invasion; assay type: functional
[4] = tested on: Plasmodium falciparum; experiment: Antimalarial activity as 3rd generation ring-stage chloroquine-sensitive Plasmodium falciparum 3D7 after 48 hrs dose then 48 hrs drug-free; assay type: functional, organism-based; conditions: 3D7, 48 h
[5] = tested on: Plasmodium falciparum; experiment: (§1) Antimalarial activity as 2nd generation parasitaemia after 48 hrs against chloroquine-sensitive Plasmodium falciparum 3D7 infected human erythrocytes at 6 uM 0-24 hrs post invasion; assay type: functional
[6] = Tmax in patient with severe malaria at 200 mg, perorally; assay type: ADME, organism-based; conditions: human, in vivo, po
[7] = tested on: Plasmodium falciparum; experiment: Antimalarial activity as 2nd generation parasitaemia after 48 hrs against chloroquine-sensitive Plasmodium falciparum 3D7 infected human erythrocytes at 6 uM 12-24 hrs post invasion; assay type: functional
[8] = tested on: Plasmodium falciparum; experiment: Antimalarial activity as 2nd generation ring-stage chloroquine-sensitive Plasmodium falciparum 3D7 after 48 hrs by flow cytometry; assay type: functional, organism-based; conditions: 3D7, 48 h
[9] = tested on: Plasmodium falciparum; experiment: Antimalarial activity as 2nd generation parasitaemia after 48 hrs against chloroquine-sensitive Plasmodium falciparum 3D7 infected human erythrocytes at 6 uM 24-36 hrs post invasion; assay type: functional
[10] = tested on: Plasmodium falciparum; experiment: Antimalarial activity as 2nd generation parasitaemia after 48 hrs against chloroquine-sensitive Plasmodium falciparum 3D7 infected human erythrocytes at 6 uM 12-48 hrs post invasion; assay type: functional
[11] = tested on: Plasmodium falciparum; experiment: Antimalarial activity as 3rd generation ring-stage chloroquine-resistant Plasmodium falciparum W2 after 48 hrs dose then 48 hrs drug-free; assay type: functional, organism-based; conditions: W2, 48 h, read-out: IC50
[12] = tested on: Plasmodium falciparum; experiment: as §1; assay type: functional; remark: listed apart in the source
[13] = tested on: Plasmodium falciparum; experiment: Antimalarial activity as 2nd generation ring-stage chloroquine-resistant Plasmodium falciparum W2 after 48 hrs by flow cytometry; assay type: functional, organism-based; conditions: W2, 48 h
[14] = tested on: Plasmodium falciparum; experiment: Antimalarial activity as 2nd generation parasitaemia after 48 hrs against chloroquine-sensitive Plasmodium falciparum 3D7 infected human erythrocytes at 6 uM 0-12 hrs post invasion; assay type: functional
[15] = tested on: Plasmodium falciparum; experiment: Antimalarial activity as 2nd generation parasitaemia after 48 hrs against chloroquine-sensitive Plasmodium falciparum 3D7 infected human erythrocytes at 6 uM 12-36 hrs post invasion; assay type: functional
[16] = tested on: Plasmodium falciparum; experiment: Antimalarial activity as 2nd generation parasitaemia after 48 hrs against chloroquine-sensitive Plasmodium falciparum 3D7 infected human erythrocytes at 6 uM 24-48 hrs post invasion; assay type: functional

SMILES: CO[C@H]1/C=C/O[C@@]2(C)Oc3c(C)c(O)c4c(O)c(c(/C=N/N5CCN(C)CC5)c(O)c4c3C2=O)NC(=O)/C(C)=C\C=C\[C@H](C)[C@H](O)[C@@H](C)[C@@H](O)[C@@H](C)[C@H](OC(C)=O)[C@@H]1C [RIFAMPIN]
- Activity [1]: Active
- Activity [2]: 15%
- Activity [3]: 93%
- IC50 [4]: 2.83 µM
- Activity [5]: 16%
- Tmax [6]: 1 h
- Activity [7]: 36%
- IC50 [8]: 2.99 µM
- Activity [9]: 49%
- Activity [10]: 13%
- IC50 [11]: 0.528 µM
- Activity [12]: 14%
- IC50 [13]: 0.274 µM
- Activity [14]: 65%
- Activity [15]: 13%
- Activity [16]: 25%
